Measurements taken from paper PMC10893631, “Receptor-based pharmacophore modeling, molecular docking, synthesis and biological evaluation of novel VEGFR-2, FGFR-1, and BRAF multi-kinase inhibitors” (BMC Chemistry, 2024).

Assays:
Assay in all cases: NCI SRB growth inhibition (single dose 10 µM / five-dose)
Assay type in all cases: cell-based, human
A549/ATCC = conditions: Homo sapiens; A549/ATCC (Non-small cell lung cancer), 10 µM; read-out: GI%
Experimental: (§1) Screening of cytotoxic activity against a panel of sixty human tumor cell lines The selected compounds by NCI were evaluated for their anticancer activity in a two- stage process. […] Then, the output from the single dose screen is reported as a mean graph. […] Assay protocol. […] For a typical screening experiment, cells are inoculated into 96 well microtiter plates in 100 µL at plating densities ranging from 5000 to 40,000 cells/well depending on the doubling time of individual cell lines. […] After 24 h, two plates of each cell line are fixed in situ with TCA, to represent a measurement of the cell population for each cell line at the time of drug addition (Tz). The experimental drugs are solubilized in dimethyl sulfoxide at 400-fold the desired final maximum test concentration and stored frozen prior to use. At the time of drug addition, an aliquot of frozen concentrate is thawed and diluted to twice the desired final maximum test concentration with complete medium containing 50 µg/mL gentamicin. Additional four, 10-fold or ½ log serial dilutions are made to provide a total of five drug concentrations plus control. Aliquots of 100 mL of these different drug dilutions are added to the appropriate microtiter wells already containing […] of medium, resulting in the required final drug concentrations. […] For adherent cells, the assay is terminated by the addition of cold TCA. […] The supernatant is discarded, and the plates are washed five times with tap water and air dried. Sulforhodamine B (SRB) solution ([…]) at 0.4% (w/v) in 1% acetic acid is added to each well, and plates are incubated for 10 min at room temperature. After staining, unbound dye is removed by washing five times with 1% acetic acid and the plates are air dried. […] Using the seven absorbance measurements [time zero, (Tz), control growth, (C), and test growth in the presence of drug at the five concentration levels (Ti)], the percentage growth is calculated at each of the drug concentrations levels. Percentage growth inhibition is calculated as: [(Ti Tz)/(C–Tz)] x 100 for concentrations for which Ti>/=Tz and [(Ti-Tz)/Tz] x 100 for concentrations for which Ti < Tz. Three dose response parameters are calculated for each experimental agent. […] The drug concentration resulting in total growth inhibition (TGI) is calculated from Ti = Tz. […] Values are calculated for each of these three parameters if the level of activity is reached; however, if the effect is not reached or is exceeded, the value for that parameter is expressed as greater or less than the maximum or minimum concentration tested.

ACHN = conditions: Homo sapiens; ACHN (Renal cancer), 10 µM; read-out: GI%
Experimental: as §1

BT-549 = conditions: Homo sapiens; BT-549 (Breast cancer), 10 µM; read-out: GI%
Experimental: as §1

CAKI-1 = conditions: Homo sapiens; CAKI-1 (Renal cancer), 10 µM; read-out: GI%
Experimental: as §1

CCRF-CEM = conditions: Homo sapiens; CCRF-CEM (Leukemia), 10 µM; read-out: GI%
Experimental: as §1

DU-145 = conditions: Homo sapiens; DU-145 (Prostate cancer), 10 µM; read-out: GI%
Experimental: as §1

EKVX = conditions: Homo sapiens; EKVX (Non-small cell lung cancer), 10 µM; read-out: GI%
Experimental: as §1

HT29 = conditions: Homo sapiens, HT-29; HT29 (Colon cancer), 10 µM; read-out: GI%
Experimental: as §1

IGROV1 = conditions: Homo sapiens, IGROV-1; IGROV1 (Ovarian cancer), 10 µM; read-out: GI%
Experimental: as §1

K-562 = conditions: Homo sapiens, K562; K-562 (Leukemia), 10 µM; read-out: GI%
Experimental: as §1

LOX IMVI = conditions: Homo sapiens; LOX IMVI (Melanoma), 10 µM; read-out: GI%
Experimental: as §1

M14 = conditions: Homo sapiens; M14 (Melanoma), 10 µM; read-out: GI%
Experimental: as §1

MDA-MB-435 = conditions: Homo sapiens; MDA-MB-435 (Melanoma), 10 µM; read-out: GI%
Experimental: as §1

NCI-H322M = conditions: Homo sapiens; NCI-H322M (Non-small cell lung cancer), 10 µM; read-out: GI%
Experimental: as §1

NCI-H460 = conditions: Homo sapiens; NCI-H460 (Non-small cell lung cancer), 10 µM; read-out: GI%
Experimental: as §1

NCI-H522 = conditions: Homo sapiens; NCI-H522 (Non-small cell lung cancer), 10 µM; read-out: GI%
Experimental: as §1

NCI/ADR-RES = conditions: Homo sapiens; NCI/ADR-RES (Ovarian cancer), 10 µM; read-out: GI%
Experimental: as §1

OVCAR-3 = conditions: Homo sapiens; OVCAR-3 (Ovarian cancer), 10 µM; read-out: GI%
Experimental: as §1

OVCAR-4 = conditions: Homo sapiens; OVCAR-4 (Ovarian cancer), 10 µM; read-out: GI%
Experimental: as §1

OVCAR-8 = conditions: Homo sapiens; OVCAR-8 (Ovarian cancer), 10 µM; read-out: GI%
Experimental: as §1

SF-295 = conditions: Homo sapiens; SF-295 (CNS cancer), 10 µM; read-out: GI%
Experimental: as §1

SK-MEL-2 = conditions: Homo sapiens; SK-MEL-2 (Melanoma), 10 µM; read-out: GI%
Experimental: as §1

SN12C = conditions: Homo sapiens; SN12C (Renal cancer), 10 µM; read-out: GI%
Experimental: as §1

SR = conditions: Homo sapiens; SR (Leukemia), 10 µM; read-out: GI%
Experimental: as §1

COLO 205 = conditions: Homo sapiens; COLO 205 (Colon cancer), 10 µM; read-out: GI%
Experimental: as §1

SK-OV-3 = conditions: Homo sapiens; SK-OV-3 (Ovarian cancer), 10 µM; read-out: GI%
Experimental: as §1

SMILES	inhibition at 10 µM (A549/ATCC) [%]	inhibition at 10 µM (ACHN) [%]	inhibition at 10 µM (BT-549) [%]	inhibition at 10 µM (CAKI-1) [%]	inhibition at 10 µM (CCRF-CEM) [%]	inhibition at 10 µM (DU-145) [%]	inhibition at 10 µM (EKVX) [%]	inhibition at 10 µM (HT29) [%]	inhibition at 10 µM (IGROV1) [%]	inhibition at 10 µM (K-562) [%]	inhibition at 10 µM (LOX IMVI) [%]	inhibition at 10 µM (M14) [%]	inhibition at 10 µM (MDA-MB-435) [%]	inhibition at 10 µM (NCI-H322M) [%]	inhibition at 10 µM (NCI-H460) [%]	inhibition at 10 µM (NCI-H522) [%]	inhibition at 10 µM (NCI/ADR-RES) [%]	inhibition at 10 µM (OVCAR-3) [%]	inhibition at 10 µM (OVCAR-4) [%]	inhibition at 10 µM (OVCAR-8) [%]	also measured
COc1ccc(C=NNC(=O)c2ccc3[nH]c(-c4ccc(Cl)cc4)nc3c2)cc1O [8s, 2-(4-Chlorophenyl)-N'-(3-hydroxy-4-methoxybenzylidene)-1H-benzo[d]imidazole-5-carbohydrazide]	7.66	< 5	42.9	18.5	> 100	16.2	37	> 100	< 5	50.3	44.9	42.1	89.9	18.1	63.8	30.9	< 5	47.5	20.8	43.2	inhibition at 10 µM (SF-295): 85%; inhibition at 10 µM (SK-MEL-2): 76.1%; inhibition at 10 µM (SN12C): 31.3%; inhibition at 10 µM (SR): 77.2%
COc1cc(C=NNC(=O)c2ccc3[nH]c(-c4ccccc4)nc3c2)cc(OC)c1OC [8g, 2-Phenyl-N'-(3,4,5-trimethoxybenzylidene)-1H-benzo[d]imidazole-5-carbohydrazide]	29.3	33.8	35.4	49.7	62	17.1	12.2	47.3	17	30.4	56.5	43.3	48.5	15.7	56.3	50.7	< 5	29.4	21.9	48.7	inhibition at 10 µM (SF-295): 54.1%; inhibition at 10 µM (SK-MEL-2): 21.8%; inhibition at 10 µM (SN12C): 32.2%; inhibition at 10 µM (SR): 17.6%
COc1ccc(OC)c(C=NNC(=O)c2ccc3[nH]c(-c4ccccc4)nc3c2)c1 [8f, N'-(2,5-Dimethoxybenzylidene)-2-phenyl-1H-benzo[d]imidazole-5-carbohydrazide]	17.2	36.5	38.2	41.5	80.5	18.4	22.7	14.7	11	63	62.5	34.4	73.7	12.3	15.8	37.8	24.5	12.5	37.8	52.6	inhibition at 10 µM (SF-295): 31.4%; inhibition at 10 µM (SK-MEL-2): 16.7%; inhibition at 10 µM (SN12C): 35.2%; inhibition at 10 µM (SR): 36.3%
COc1cccc(C=NNC(=O)c2ccc3[nH]c(-c4ccccc4)nc3c2)c1 [8c, N'-(3-Methoxybenzylidene)-2-phenyl-1H-benzo[d]imidazole-5-carbohydrazide]	20.1	< 5	< 5	10	44.5	18.4	41.8	33.9	10.1	41.7	< 5	8.28	18.9	6.09	13.1	26	6.59	7.38	20.1	24.5	inhibition at 10 µM (COLO 205): 32.6%; inhibition at 10 µM (SF-295): 18.5%; inhibition at 10 µM (SK-MEL-2): 19.5%; inhibition at 10 µM (SK-OV-3): 64%; inhibition at 10 µM (SR): 36.3%
O=C(NN=Cc1cccc(O)c1)c1ccc2[nH]c(-c3ccccc3)nc2c1 [8b, N'-(3-Hydroxybenzylidene)-2-phenyl-1H-benzo[d]imidazole-5-carbohydrazide]	< 5	< 5	< 5	9.41	54.4	< 5	13.8	16.4	13	21.4	7.43	< 5	5.45	< 5	< 5	38.1	< 5	11.1	12.4	10.3	inhibition at 10 µM (COLO 205): < 5%; inhibition at 10 µM (SF-295): < 5%; inhibition at 10 µM (SK-MEL-2): < 5%; inhibition at 10 µM (SK-OV-3): 25.6%; inhibition at 10 µM (SR): 36.8%
